Experimental findings from patent publication US20240166624A1, “PPARG INVERSE AGONISTS AND USES THEREOF” (Flare Therapeutics Inc., priority 2021, published 2024) are described below.

The target of test [1] is T1, PPARG/RXRA LBD heterodimer (Homo sapiens, UniProt P37231).
T1 construct: His-TEV-Q203-Y477; Uniprot ID P37231-2; made in house; host or cells: E. coli
T1 sequence (P37231 203-477 isoform P37231-2): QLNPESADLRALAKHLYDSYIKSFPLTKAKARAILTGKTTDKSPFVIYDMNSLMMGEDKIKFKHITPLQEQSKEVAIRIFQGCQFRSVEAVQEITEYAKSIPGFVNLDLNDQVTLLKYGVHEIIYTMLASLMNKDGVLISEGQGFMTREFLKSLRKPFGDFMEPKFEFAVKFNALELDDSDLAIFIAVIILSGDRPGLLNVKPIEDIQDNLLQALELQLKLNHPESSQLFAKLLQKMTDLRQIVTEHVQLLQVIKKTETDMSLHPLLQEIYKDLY
T1 sequence (P19793 228-462 partner limits assumed): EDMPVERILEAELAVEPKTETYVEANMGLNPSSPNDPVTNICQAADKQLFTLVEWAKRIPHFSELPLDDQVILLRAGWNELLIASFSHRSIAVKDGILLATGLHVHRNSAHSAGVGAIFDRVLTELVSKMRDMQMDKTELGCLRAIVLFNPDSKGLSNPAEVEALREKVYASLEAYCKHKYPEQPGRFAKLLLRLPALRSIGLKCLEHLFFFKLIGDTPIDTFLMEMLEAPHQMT
The experiment in a line: PPARγ-MED1 blockade assay (TR-FRET, biotinylated MED1 LxxLL peptide). Format: biochemical. The note with it: WT PPARG LBD/WT RXRA LBD, 80 nM Rosiglitazone, 3 hours. Put shortly:
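TR-FRET measuring biotinylated MED1 LxxLL peptide association with 2 nM each His-PPARG LBD (Q203-Y477) and Flag-RXRA LBD (E228-T462), E. coli expressed. Read after 3 h incubation; ratios normalized to DMSO (0%) and GW9662 minimum (100%) for IC50 and maximal MED1 repulsion.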
A general note: TR-FRET usually uses a lanthanide donor and a delayed reading to cut background.

For test [2], the target named is T2, PPARG/RXRA LBD heterodimer (Homo sapiens, UniProt P37231).
T2 construct: His-TEV-Q203-Y477; Uniprot ID P37231-2; made in house; host or cells: E. coli
Kind of test: PPARγ-NCOR1 recruitment assay (TR-FRET, biotinylated NCOR1 ID2 peptide). In kind it is biochemical. The following applies: 80 nM Rosiglitazone, 3 hours, read-out: PPARG-NCOR recruitment assay EC50. An outline of the steps: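 2 nM each of E. coli-expressed PPARG LBD (Q203-Y477) and RXRA LBD (WT or S427F, E228-T462) with biotinylated NCOR1 ID2 peptide, incubated 3 h; TR-FRET read at Ex/Em 615/665. Ratios normalized to DMSO (0%) and T0070907 maximum (100%) for EC50 and maximal recruitment.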
T2 sequence (O75376 2251-2273 partner, one chain of several): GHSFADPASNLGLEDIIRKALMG

Test [3] concerns ANGPTL4, a PPARG target gene, in HT1197 (RXRA S427F mutation) cells. The experiment in a line: Bladder cancer pharmacodynamic assay, HT1197 cell assay (qPCR of ANGPTL4). Format: cell-based. The note with it: Homo sapiens, 24 hours; for inhibition at 0.1 µM: 100 nM compound, relative to DMSO control. Put shortly:
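5637 (PPARG amplified) and HT1197 (RXRA S427F) cells treated 24 h with PPARG inverse agonists. FABP4 and ANGPTL4 expression measured by qPCR, normalised to TBP, and reported relative to DMSO control by ΔΔCt.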
(In general: Quantitative PCR measures a nucleic acid by following its amplification.)

The subject of test [4] is FABP4, a PPARG target gene, in 5637 (PPARG amplified) cells. The experiment in a line: Bladder cancer pharmacodynamic assay, 5637 cell assay (qPCR of FABP4). Format: cell-based. The note with it: 5637 cells, 24 hours, 100 nM compound, relative to DMSO control. The protocol:
Bladder Cancer Pharmacodynamic Assay
5637 (PPARG amplified) and HT1197 (RXRA S427F mutation) cells were used for assessment of modulation of PPARG target genes using quantitative PCR. Cells were treated for 24 hours with PPARG inverse agonists prior to analysis of FABP4 (IDT, Cat: Hs.PT 58.20106818) and ANGPTL4 (IDT, Cat: Hs.PT 58.25480012) expression, with expression of the housekeeping gene TBP (IDT, Cat: Hs.PT 58v.39858774) used to normalize expression across samples. Quantitative PCR was performed using an ABI QuantStudio 7 Flex Reaction system. Data were analyzed and reported relative to DMSO control using the comparative Ct method (ΔΔCt).

The structures appear in SMILES notation. pEC50: −log10 of the molar value.

As a reminder, the pEC50 is the negative decadic logarithm of the EC50, by convention in mol/L. As usually defined, the inhibition is the percentage by which the read-out fell short of the control. As for `N#Cc1ccc(Cl)c(-c2cc(=O)c3c(F)cc(F)cc3[nH]2)c1` [Example 1, 4-chloro-3-(5,7-difluoro-4-oxo-1,4-dihydroquinolin-2-yl)benzonitrile], the pEC50 in test [1] was 6.00 to 7.00; in test [2], 6.00 to 7.00; in test [3] (ANGPTL4 expression) it was 8.30. Besides, the inhibition at 0.1 µM in test [3] amounted to 88%; in test [4], 95%.

Regarding `N#Cc1ccc(Br)c(-c2cc(=O)c3c(F)cc(F)cc3[nH]2)c1` [Example 4, 4-bromo-3-(5,7-difluoro-4-oxo-1,4-dihydroquinolin-2-yl)benzonitrile], the pEC50 in test [1] and in test [2] was 7.00 to 8.00 throughout. Besides, the inhibition at 0.1 µM in test [3] came out at 90%; in test [4], 94%.

Turning to `N#Cc1ccc(Cl)c(-c2cc(=O)c3cc(F)c(F)cc3[nH]2)c1` [Example 5, 4-chloro-3-(6,7-difluoro-4-oxo-1H-quinolin-2-yl)benzonitrile], the pEC50 in test [1] and in test [2] was 5.00 to 6.00 throughout. Further, the inhibition at 0.1 µM in test [3] came out at 86%; in test [4] it was 90%.

On to `N#Cc1ccc(Cl)c(-c2cc(=O)c3cc(Cl)c(Cl)cc3[nH]2)c1` [Example 2, 4-chloro-3-(6,7-dichloro-4-oxo-1,4-dihydroquinolin-2-yl)benzonitrile], for which the pEC50 in test [1] and in test [2] was 6.00 to 7.00 throughout. The inhibition at 0.1 µM came to 83% in test [3] and 93% in test [4].

In the case of `N#Cc1ccc(Br)c(-c2cc(=O)c3cc(F)c(F)cc3[nH]2)c1` [Example 6, 4-bromo-3-(6,7-difluoro-4-oxo-1,4-dihydroquinolin-2-yl)benzonitrile], the pEC50 in test [1] and in test [2] was 6.00 to 7.00 each time. Also, testing at 0.1 µM in test [4] gave an inhibition of 93%.

Take `N#Cc1ccc(Cl)c(-c2cc(=O)c3c(F)c(-c4ccc(C(F)(F)F)cc4)c(F)cc3[nH]2)c1` [Example 11, 4-chloro-3-(5,7-difluoro-4-oxo-6-(4-(trifluoromethyl)phenyl)-1,4-dihydroquinolin-2-yl)benzonitrile]: the pEC50 is 6.00 to 7.00 in test [1] and 7.00 to 8.00 in test [2]. The inhibition at 0.1 µM is 88% in test [3] and 94% in test [4].
